The values that follow are results of earlier work, collected in patent US10946075B1 (priority 2014, dated 2021).

Data set [1] has as its system mice. As to conditions: mouse, in vivo.
The conditions of data set [2]: in vivo.
The test system of a further data set is murine neuroblastoma. The conditions noted are these: mouse, in vivo.
The test system of data set [3] is mice. The conditions noted are these: mouse, in vivo, 16 mg/kg.
For data set [4], the system named is dogs. As to conditions: dog, in vivo.
The conditions of data set [5]: in vivo. This is another data set of the same source.
Data set [6] relates to dogs. As to conditions: dog, in vivo. This is another data set of the same source.
The subject of another data set is rat gamete. As to conditions: in vivo.
A further data set relates to thyroid gland. The conditions noted are these: rat, in vivo.
A further data set concerns humans. The conditions noted are these: human.
Another data set concerns rats. The conditions noted are these: rat, in vivo.

In the case of `Cc1cc2nc3c(=O)[nH]c(=O)nc-3n(C[C@H](O)[C@H](O)[C@H](O)CO)c2cc1C` [riboflavin], the “mortality and DNA damages” value in the data set with mice [1] was “higher mortality rates and more DNA damages”. Regarding `CC1=C(/C=C/C(C)=C/C=C/C(C)=C/C=C/C=C(C)/C=C/C=C(C)/C=C/C2=C(C)CCCC2(C)C)C(C)(C)CCC1` [Beta Carotene], the survival in [2] is on record as 80%. On to `O=C(O)CCCCC1CCSS1` (stereo not drawn) [Alpha lipoic acid, Alpha Lipoic Acid], for which the survival rate result in the data set with murine neuroblastoma is reported as “about 10%”. In addition, the “number of surviving animals” value in the data set on mice [3] is reported as “doubled”. Take `O=C([O-])CC(O)(CC(=O)[O-])C(=O)[O-].[Na+].[Na+].[Na+]` [sodium citrate]: the treated dogs survived in the data set on dogs [4] is on record as 100%. Regarding `NCCC[C@](N)(C(=O)O)C(F)F` [DFMO, alpha-difluoromethylornithine], the radiation-induced cell death in the data set with cells is 50-60 % of control. Moreover, in the data set with polyamine biosynthesis, the “putrescine and spermidine levels” value is “nondetectable levels”; the spermine decrease is 50%. As for Vitamin E, the white cell count result in data set [5] is “doubled”.

On to `C[S+](C)[O-]` [DMSO, Dimethylsulfoxide], for which the “induction of micronuclei by bystander effect cells” value in the data set with bystander effect cells was “completely suppressed”. `O=C1O[C@H]([C@@H](O)CO)C(O)=C1O` [vitamin C, Ascorbic Acid]: in the data set with dogs [6], the “reduction of mortality rate” value is given as 50%. Also, the “increase of gamete survival vs. controls (factor)” value in the data set with rat gamete is recorded as 2.2. Moreover, in the data set with hamster ovary cells, the protection over control entry was “seven-fold”. As to `[I-].[K+]` [KI, Potassium iodide], in the data set on thyroid gland, the “131I- excreted in urine” value was 30%. Further, the “approximate LD50 in humans” value with humans was around 500 mg/kg.

B1: papain (protein, UniProt P00784 134-345, looked up)
Papain: IPEYVDWRQKGAVTPVKNQGSCGSCWAFSAVVTIEGIIKIRTGNLNEYSEQELLDCDRRSYGCNGGYPWSALQLVAQYGIHYRNTYPYEGVQRYCRSREKGPYAAKTDGVRQVQPYNEGALLYSIANQPVSVVLEAAGKDFQLYRGGIFVGPCGNKVDHAVAAVGYGPNYILIKNSWGTGWGENGYIRIKRGTGNSYGVCGLYTSSFYPVKN
In the case of B1, the survival with rats is recorded as 50%.
